≈ marks a conversion by molar mass, not a printed value. Where “and” joins values, the source holds several entries; their conditions need not be identical. Equal values may be shown once. Read-outs that look alike come from different tables or passages of the source.
Columns and labels:
[1] = system: Mediterranean fish species Blennius sphinx; design: method as in PMID 15018063; conditions: cited from earlier work
[2] = Cytotoxicity assay (CO-ADD); format: cell-based; conditions: human, human embryonic kidney cells
human red blood cells = assay: Haemolysis assay (CO-ADD); format: cell-based
[3] = system: MRSA (G+) strain ATCC 43300; assay: Antimicrobial growth inhibition (CO-ADD), MRSA; format: cell-based, Staphylococcus aureus; conditions: for MIC: Staphylococcus aureus, read-out: MIC MRSA
Method: (§1) Compounds 1−3 and 5−12 were assayed against a selection of medically important pathogenic microorganisms (MRSA, E. coli, K. pneumoniae, A. baumanii, P. aeruginosa, C. albicans, C. neoformans), Table 4. […] To the best of our knowledge this compound had not been tested against any drug resistant strain of Gram-positive bacterium until this study.
(§2) The antimicrobial activity testing was performed by the Community for Antimicrobial Drug Discovery (CO-ADD). Compounds were assayed against a range of both Gram negative and Gram positive bacteria (see Supplementary Materials S3) including methicillin-resistant Staphylococcus aureus (MRSA) (G+), Escherichia coli (G-), Klebsiella pneumoniae (G-), Acinetobacter baumannii (G-), Pseudomonas aeruginosa (G-) together with two species of fungus (Candida albicans and Cryptococcus neoformans).
(§3) S3. Antimicrobial activity testing methodology
(§4) The compounds submitted to CO-ADD were evaluated in duplicate (n = 2) against seven microorganisms (five bacteria and two fungi) at a concentration of 32 µg/mL in a 384-well, non-binding surface plate (NBS) for each bacterial/fungal strain, keeping the final DMSO concentration to a maximum of 1% DMSO. All bacteria were cultured in cation-adjusted Mueller-Hinton broth (CAMHB) at 37 °C overnight. A sample of each culture was then diluted 40-fold in fresh broth and incubated at 37 °C for 1.5-3 h. The resultant mid-log phase cultures were diluted (CFU/mL measured by OD600), then added to each well of the compound containing plates, giving a cell density of 5x10^5 CFU/mL and a total volume of 50 µL. All the plates were covered and incubated at 37 °C for 18 h without shaking. […] Inhibition of bacterial growth was determined measuring absorbance at 600 nm (OD600) using a Tecan M1000 Pro mon-ochromator plate reader. […]
(§5) 2 h. The absorbance was measured using a Biotek Synergy HTX plate reader. The percentage of growth inhibition was calculated for each well, using negative control (medium only) and positive control (bacteria without inhibitors) on the same plate as the references. The significance of inhibition values was determined by modified Z-scores, calculated using the median and MAD of the samples (no controls) on the same plate. Samples with inhibition value above 80% and Z-score above 2.5 for either replicate (n = 2 on different plates) were classed as actives.
(§6) Colistin and vancomycin were used as positive bacterial inhibitor standards for Gram-negative and Gram-positive bac-teria, respectively. Fluconazole was used as a positive fungal inhibitor standard for C. albicans and C. neoformans. The antibiotics were provided in four concentrations, with two above and two below its MIC value, and plated into the first eight wells of column 23 of the 384-well NBS plates. The quality control (QC) of the assays was determined by the antimicrobial controls and the Z’-factor (using positive and negative controls). Each plate was deemed to fulfil the qual- […]
(§7) full growth inhibition at their highest concentration, and no growth inhibition at their lowest concentration. The seven […]
(§8) test microorganisms were Staphylococcus aureus MRSA (ATCC 43300), Escherichia coli (ATCC 25922), Klebsiella pneu-moniae (ATCC 700603), Acinetobacter baumanii (ATCC19606), Pseudomonas aeruginosa (ATCC 27853), Candida albicans (ATCC 90028) and Cryptococcus neoformans var. grubii (H99; ATCC 208821).
(§9) S4. Anthelmintic activity testing methodology
(§10) Dose-response evaluations were carried out to estimate the half-maximal inhibitory concentrations (IC50 values) for compounds against Haemonchus contortus (Haecon-5 strain) exsheathed third-stage larvae (xL3s). H. contortus were maintained in experimental sheep and procured in accordance with the institutional animal ethics guidelines and the regulations of Australia (permit no. 1714374; University of Melbourne). Immediately prior to use, third-stage larvae (L3s) were exsheathed and sterilised by incubation in 0.15% (v/v) bleach at 38 °C for 20 min, followed by washes in […]

[4] = system: E. Coli (G-) strain ATCC 25922; assay: Antimicrobial growth inhibition (CO-ADD), E. coli; format: cell-based, Escherichia coli; conditions: for % inhibition E. coli: 32 µg/mL; for % inhibition E. coli / inhibition at 32 µg/mL: duplicate (n = 2) values; for MIC / inhibition at 32 µg/mL: Escherichia coli; for MIC: ATCC25922, read-out: MIC E. coli; for inhibition at 32 µg/mL: ATCC25922, 32 µg/mL, read-out: % inhibition E. coli
Method: as §1, §2, §3, §4, §5, §6, §7, §8, §9, §10

[5] = system: K. pneumoniae (G-) strain ATCC 700603; assay: Antimicrobial growth inhibition (CO-ADD), K. pneumoniae; format: cell-based, Klebsiella pneumoniae; conditions: for % inhibition K. pneumoniae: 32 µg/mL; for % inhibition K. pneumoniae / inhibition at 32 µg/mL: duplicate (n = 2) values; for inhibition at 32 µg/mL / MIC: Klebsiella pneumoniae; for inhibition at 32 µg/mL: ATCC700603, 32 µg/mL, read-out: % inhibition K. pneumoniae; for MIC: ATCC700603, read-out: MIC K. pneumoniae
Method: as §1, §2, §3, §4, §5, §6, §7, §8, §9, §10

[6] = system: A. baumannii (G-) strain ATCC 19606; assay: Antimicrobial growth inhibition (CO-ADD), A. baumannii; format: cell-based, Acinetobacter baumannii; conditions: for MIC: Acinetobacter baumannii, ATCC19606, read-out: MIC A. baumannii
Method: as §1, §2, §3, §4, §5, §6, §7, §8, §9, §10

[7] = system: P. auruginosa (G-) strain ATCC 27853; assay: Antimicrobial growth inhibition (CO-ADD), P. aeruginosa; format: cell-based, Pseudomonas aeruginosa; conditions: ATCC 27853; for MIC: Pseudomonas aeruginosa, ATCC27853, read-out: MIC P. aeruginosa
Method: as §1, §2, §3, §4, §5, §6, §7, §8, §9, §10

[8] = system: C. albicans (yeast) ATCC 90028; assay: Antimicrobial growth inhibition (CO-ADD), C. albicans; format: cell-based, Candida albicans; conditions: Candida albicans, ATCC90028; ATCC 90028; read-out: MIC C. albicans
Method: as §1, §2, §3
(§11) The compounds submitted to CO-ADD were evaluated in duplicate (n = 2) against seven microorganisms (five bacteria and two fungi) at a concentration of 32 µg/mL in a 384-well, non-binding surface plate (NBS) for each bacterial/fungal strain, keeping the final DMSO concentration to a maximum of 1% DMSO. All bacteria were cultured in cation-adjusted […]
(§12) Fungal strains were cultured for 3 days on Yeast Extract-Peptone Dextrose (YPD) agar at 30 °C. A yeast suspension of 1 x 10^6 to 5 x 10^6 CFU/mL (as determined by OD530) was prepared from five colonies. The suspension was subsequently diluted and added to each well of the compound-containing plates giving a final cell density of fungi suspension of 2.5 x 10^3 CFU/mL and a total volume of 50 µL. All plates were covered and incubated at 35 °C for 24 h without shaking. […]
as §5, §6, §7, §8, §9
Dose-response evaluations were carried out to estimate the half-maximal inhibitory concentrations (IC50 values) for compounds against Haemonchus contortus (Haecon-5 strain) exsheathed third-stage larvae (xL3s). H. contortus were maintained in experimental sheep and procured in accordance with the institutional animal ethics guidelines and the regulations of Australia (permit no. 1714374; University of Melbourne). Immediately prior to use, third-stage larvae (L3s) were exsheathed and sterilised by incubation in 0.15% (v/v) bleach at 38 °C for 20 min, followed by washes in sterile saline at room temperature (22-24 °C). […]

[9] = system: C. neoformans var. grubii strain ATCC 208821; assay: Antimicrobial growth inhibition (CO-ADD), C. neoformans; format: cell-based, Cryptococcus neoformans; conditions: duplicate (n = 2) values
Method: as §1, §2, §3, §11, §12
as §5, with “Growth inhibition of C. albicans was determined measuring absorbance at 530 nm (OD530), while the growth inhibition of C. neoformans was determined measuring the difference in absorbance between 600 and 570 nm (OD600-570), after the addition of resazurin (0.001% final concentration) and incubation at 35 °C for an additional 2 h.” for “2 h.”
as §6, §7, §8, §9
Dose-response evaluations were carried out to estimate the half-maximal inhibitory concentrations (IC50 values) for compounds against Haemonchus contortus (Haecon-5 strain) exsheathed third-stage larvae (xL3s). H. contortus were maintained in experimental sheep and procured in accordance with the institutional animal ethics guidelines and the […]

[10] = system: C. neoformans var. grubii strain ATCC 208821; assay: as above; format: cell-based; conditions: Cryptococcus neoformans, ATCC208821; var. grubii ATCC 208821; read-out: MIC C. neoformans
[11] = ATCC 43300, MIC = concentration at which growth inhibited by ≥80%, range 0.25−32 µg/mL
[12] = ATCC 25922, MIC = concentration at which growth inhibited by ≥80%
[13] = 32 µg/mL, duplicate (n = 2) values

Compound: aplysinamisin-1 [reference compound]
- feeding deterrent activity, Blennius sphinx [1]: significant feeding deterrent activity

Compound: CC/C(=C(\c1ccccc1)c1ccc(OCCN(C)C)cc1)c1ccccc1 [Tamoxifen, reference compound]
- CC50 [2]: 9 µg/mL (≈ 24.2 µM)

Compound: CC[C@H](C)[C@H](NC(=O)CN)C(=O)NCC(=O)N[C@@H](C)C(=O)N[C@H](C(=O)N[C@@H](CC(C)C)C(=O)N[C@@H](CCCCN)C(=O)N[C@H](C(=O)N[C@@H](CC(C)C)C(=O)N[C@H](C(=O)N[C@H](C(=O)NCC(=O)N[C@@H](CC(C)C)C(=O)N1CCC[C@H]1C(=O)N[C@@H](C)C(=O)N[C@@H](CC(C)C)C(=O)N[C@H](C(=O)N[C@@H](CO)C(=O)N[C@@H](Cc1c[nH]c2ccccc12)C(=O)N[C@H](C(=O)N[C@@H](CCCCN)C(=O)N[C@@H](CCCNC(=N)N)C(=O)N[C@@H](CCCCN)C(=O)N[C@@H](CCCNC(=N)N)C(=O)N[C@@H](CCC(N)=O)C(=O)N[C@@H](CCC(N)=O)C(N)=O)[C@@H](C)CC)[C@@H](C)CC)[C@@H](C)O)[C@@H](C)O)C(C)C)C(C)C [Melittin, reference compound]
- Haemolysis (HC10) (human red blood cells): Melittin: 2.7 µg/mL

Compound: CN[C@H](CC(C)C)C(=O)N[C@H]1C(=O)N[C@@H](CC(N)=O)C(=O)N[C@H]2C(=O)N[C@H]3C(=O)N[C@H](C(=O)N[C@H](C(=O)O)c4cc(O)cc(O)c4-c4cc3ccc4O)[C@H](O)c3ccc(c(Cl)c3)Oc3cc2cc(c3O[C@@H]2O[C@H](CO)[C@@H](O)[C@H](O)[C@H]2O[C@H]2C[C@](C)(N)[C@H](O)[C@H](C)O2)Oc2ccc(cc2Cl)[C@H]1O [Vancomycin, reference compound]
- MIC [3]: 1 µg/mL

Compound: COC(=O)Cc1c(O)cc(Br)c(O)c1Br [Compound 10, subereaphenol B]
- CC50 [2]: > 32 µg/mL
- Haemolysis (HC10) (human red blood cells): >32 µg/mL
- MIC [3, 11]: > 32 µg/mL
- % inhibition E. coli [4]: 15.8% and 6.4%
- MIC [4, 12]: > 32 µg/mL
- % inhibition K. pneumoniae [5]: 9.3%
- inhibition at 32 µg/mL [5]: 6.1%
- MIC ([5]; ATCC 700603): > 32 µg/mL
- % inhibition A. baumannii [6, 13]: −1.4% and −9.2%
- MIC ([6]; ATCC 19606): > 32 µg/mL
- MIC [7]: > 32 µg/mL
- MIC [8]: > 32 µg/mL
- % inhibition C. neoformans ([9]; 32 µg/mL): 8.5%
- inhibition at 32 µg/mL ([9]; Cryptococcus neoformans, ATCC208821, 32 µg/mL, read-out: % inhibition C. neoformans): 12.4%
- MIC [10]: > 32 µg/mL

Compound: COC1(OC)C(Br)=CC(O)(CC#N)C=C1Br [Compound 7, 2-(3,5-dibromo-1-hydroxy-4,4-dimethoxycyclohexa-2,5-dien-1-yl)acetonitrile]
- CC50 [2]: > 32 µg/mL
- Haemolysis (HC10) (human red blood cells): >32 µg/mL
- MIC [3, 11]: > 32 µg/mL
- % inhibition E. coli [4]: 6.2%
- inhibition at 32 µg/mL [4]: 11.2%
- MIC [4, 12]: > 32 µg/mL
- % inhibition K. pneumoniae [5]: 13.3%
- inhibition at 32 µg/mL [5]: 10.6%
- MIC ([5]; ATCC 700603): > 32 µg/mL
- MIC ([6]; ATCC 19606): > 32 µg/mL
- MIC [7]: > 32 µg/mL
- MIC [8]: > 32 µg/mL
- MIC [10]: > 32 µg/mL

Compound: OC(Cn1cncn1)(Cn1cncn1)c1ccc(F)cc1F [Fluconazole, reference compound]
- MIC [8]: 0.125 µg/mL
- MIC [10]: 8 µg/mL (≈ 26.1 µM)

Compound: Colistin [reference compound]
- MIC E. coli [4, 12]: Colistin: 0.125 µg/mL
- MIC K. pneumoniae ([5]; ATCC 700603): Colistin: 0.25 µg/mL
- MIC A. baumannii ([6]; ATCC 19606): Colistin: 0.25 µg/mL
- MIC P. aeruginosa [7]: Colistin: 0.25 µg/mL

Compound: COC(=O)NCCCCNC(=O)C1=NO[C@]2(C=C(Br)C(OC)=C(Br)[C@@H]2O)C1 [Compound 12, subereamolline C]
- CC50 [2]: > 32 µg/mL
- Haemolysis (HC10) (human red blood cells): >32 µg/mL
- % inhibition MRSA [3, 13]: 0.4% and 8.2%
- MIC [3, 11]: > 32 µg/mL
- % inhibition E. coli [4]: 6.4%
- inhibition at 32 µg/mL [4]: 12.3%
- MIC [4, 12]: > 32 µg/mL
- % inhibition K. pneumoniae [5]: 14.0% and 5.6%
- MIC ([5]; ATCC 700603): > 32 µg/mL
- MIC ([6]; ATCC 19606): > 32 µg/mL
- MIC [7]: > 32 µg/mL
- MIC [8]: > 32 µg/mL
- MIC [10]: > 32 µg/mL
